# Measurements reported in patent US20130236960A1, “VITRIFICATED STORAGE SOLUTION FOR CELLS” (priority 2010, published 2013).
# Entries after “also recorded” stand apart in the source; their conditions may differ.
# Columns and labels:
# [1] = tested on: Mouse ES cell line strain D3; test: Vitrification preservation efficiency with mouse ES cells (trypan blue survival rate, colony observation); assay type: cell-based; settings: for colonies after vitrification, melting and culture: cell membrane permeable substance used alone, 40%, 60 seconds, 3 days culture
# Protocol: The mouse ES cells after vitrification and melting were seeded, and the state of the cells after culture was confirmed by microscopic observation.
# (§1) Specifically, the experiment was conducted as follows: • Mouse ES cells were cultured according to the ordinary method. • The mouse ES cells recovered were counted, divided into 10^6 cell portions in 1.5 ml tubes, and centrifuged at 1500 rpm for 5 minutes. • The supernatant was removed, and the cells were suspended in 200 μl of the vitrification medium. • After suspension, DAP213 and the test fluid were dipped into liquid nitrogen after 15 seconds and 60 seconds, respectively, for vitrification. • The tubes were left standing for 5 minutes or more to stabilize the temperature. • The tubes were taken out liquid nitrogen, and the cells were diluted with 1800 μl of the culture medium preliminarily heated to 37° C. and rapidly suspended for melting. • A portion of the suspension was sampled for counting the cells. • On counting the cells, the life or death of cells was judged from the index of the selective excretive ability of the viable cells to trypan blue and the survival rate was calculated. • The remaining cells were seeded in a 24 well plate, and the state after 3 days was confirmed by microscopic observation.
# The 40% solution of each cell membrane permeable substance in PBS was prepared, and the mouse ES cells was suspended in the solution, left standing for 60 seconds, and dipped into liquid nitrogen for vitrification.
# as §1, with “Specifically,” for “Specifically, the”, “out from” for “out”
# as §1, with “Specifically,” for “Specifically, the”, “out from” for “out”, “calculated.” for “calculated. • The remaining cells were seeded in a 24 well plate, and the state after 3 days was confirmed by microscopic observation.”
# [2] = Vitrification ability of cell membrane permeable substances by rapid cooling with liquid nitrogen; assay type: physicochemical; settings: 30% solution in PBS
# Protocol: The 10 to 50% solutions of 6 dials (EG, PG, BG, IPG, DPG and PEG) and of DMSO were prepared and confirmed to be vitrified by rapid cooling with liquid nitrogen. Specifically, respective cell membrane permeable substances are dissolved in PBS to concentrations of 10, 20, 30, 40 and 50%, and the solution was stained with a small amount of phenol red in order to readily judge the vitrification. The solution thus prepared was divided into 200 μl portions in cryo-tubes, which were dipped into liquid nitrogen for rapid cooling. The tubes were dipped into liquid nitrogen for 5 minutes or more to stabilize the temperature before observation of each tube.
# [3] = tested on: Common marmoset (CM) ES cells; test: Cytotoxicity and influence on differentiation with common marmoset ES cells; assay type: cell-based; settings: 2% in culture medium for CMES; for nature of the colony morphology: after 3 days
# Protocol: Specifically, the experiment was conducted as follow • CMES cells were cultured with reference to “Establishment of novel embryonic stem cell lines derived from the common marmoset” ([…], Izawa […], Asano 5, Nakatsuji N, Okano H, Tani K. Stem Cells. 2005 October; 23(9):1304-13). • CMES cells were seeded in a φ35 mm dish to which feeder cells had preliminarily been adhered, and the cell membrane permeable substance was added in an amount corresponding to 2% of the amount of the culture medium. • After 3 days, microscopic observation was conducted, and the presence of the growth suppression and differentiation promotion on CMES cells was examined.
# [4] = tested on: Common marmoset ES cell line strain CMES40; test: Preservation effect on common marmoset ES cells (take rate, ALP-positive colonies); assay type: cell-based; settings: cell membrane permeable substance used alone, with trehalose, 60 seconds
# Excerpt: According to the present invention, it is possible to provide a vitrification medium which is excellent in operability and safety and can efficiently preserve cells, particularly primate ES/iPS cells. Specifically, the take rate of ca. 60% could be obtained even if simian ES cells were suspended in the vitrification medium of the present invention and after 60 seconds the suspension was poured into liquid nitrogen (as described hereinafter, the “take rate” in place of the “survival rate” is used with respect to the preservation efficiency of simian ES cells. In this place, the take rate is calculated on the basis of the number of undifferentiated colonies having taken after three or four days from the seeding of the cells without vitrification as 100). Hitherto, when DAP213, which has been most commonly used, was used, it was important to pour the cell suspension into liquid nitrogen within 15 seconds after suspending the cells in DAP213 for avoiding the lowering of the survival rate. Due to this fact, skillfulness was required for operations and wide dispersion in results was apprehended to occur depending on the technical skills of operators, so that a stable result was not always obtained. […]
# [5] = Solubility at low temperature; assay type: physicochemical
# [6] = Examination of vitrification promoting substances in 30% DMSO/PBS; assay type: physicochemical; settings: 0.3 M added to 30% DMSO solution
# Protocol: Specifically, the experiment was conducted as follows: • As the vitrification promoting substance, the following saccharides were examined: glucose, sucrose, maltose, fructose, trehalose, raffinose, erythritol, xylitol, sorbitol and mannitol. • The vitrification promoting substance was dissolved in 30% DMSO/PBS to a concentration of 0.3 M and 0.6 M respectively. • The solution thus prepared was divided into 200 μl portions in cryo-tubes, which were dipped into liquid nitrogen for rapid cooling. The tubes were dipped into liquid nitrogen for 5 minutes or more to stabilize the temperature before observation of each tube.
# [7] = Examination of ice crystal growth inhibitor: time for melting the vitrified storage solution; assay type: physicochemical; settings: for time required for the once vitrificated storage solution to be melted completely: 40% EG storage solution with the additive
# Protocol: Examination of the ice crystal growth inhibitor was conducted by comparing the times required for melting the crystallized vitrificated storage solutions. That is, when crystal lumps having the same volume are melted, a polycrystalline substance having a larger total surface area is melted more quickly. It is believed that when the growth of ice crystals is suppressed on the phase transition to crystalline state, the melting time is shortened probably due to the formation of many minute ice crystals.
# Specifically, experiment was conducted according to the following procedure. • The test fluid prepared was dispensed in a portion of 200 μl into 1.5 ml microtubes. • Dewar vessel was charged with liquid nitrogen, and a timer was provided. • The microtube was picked up with tweezers and dipped into liquid nitrogen for 40 seconds for vitrification. • The microtube was pulled out from liquid nitrogen, and the time required for complete disappearance of ice within the tube was measured.
compound,measurement,setting,value
"C[S+](C)[O-] [DMSO, Dimethyl sulfoxide]","colonies after vitrification, melting and culture",[1],least number of colonies
same,vitrification by rapid cooling with liquid nitrogen,[2],no vitrification occurs
same,differentiation promoting effect on the CMES cells,[3],no differentiation promoting effect
same,nature of the colony morphology,[3],good
"CC(N)=O [acetamide, Acetamide]","survival rate, effect of acetamide","[1]; DAP213 versus DP23, vitrification after 60 seconds",reduced
same,improvement of the survival rate due to acetamide,"[1]; DAP213 versus DP23, vitrification within 15 seconds",not recognized
"OCCO [EG, Ethylene glycol]",survival rate after melting,"[1]; 40% solution in PBS, left standing for 60 seconds before vitrification",substantially lowered as compared with DMSO+PG; also recorded: second highest
same,"colonies after vitrification, melting and culture",[1],biggest colony
same,preservation efficiency,[4],high preservation efficiency
same,differentiation promoting effect on the CMES cells,[3],no differentiation promoting effect
same,nature of the colony morphology,[3],good
"CC(O)COC(C)CO (centres unmarked) [DPG, Diprepylene glycol]",vitrification by rapid cooling with liquid nitrogen,[2],vitrified
"OC[C@H]1O[C@H](OC[C@H]2O[C@H](O[C@]3(CO)O[C@H](CO)[C@@H](O)[C@@H]3O)[C@H](O)[C@@H](O)[C@@H]2O)[C@H](O)[C@@H](O)[C@H]1O [raffinose, D-(+)-Raffinose-pentahydrate]",solubility,[5],low solubility
same,vitrification by rapid cooling in liquid nitrogen,[6],vitrified
"OC[C@H]1O[C@@](CO)(O[C@H]2O[C@H](CO)[C@@H](O)[C@H](O)[C@H]2O)[C@@H](O)[C@@H]1O [sucrose, Sucrose, reference compound]",time required for the once vitrificated storage solution to be melted completely,[7],no reduction of melting time
sericin,time required for the once vitrificated storage solution to be melted completely,[7],shortened
same,growth of ice crystals,[7]; concluded from melting time,suppresses the growth of ice crystals
Bovine serum albumin [reference compound],time required for the once vitrificated storage solution to be melted completely,[7],"an effect similar to that of sericin, its activity remained unsatisfactory"
"OC[C@H]1O[C@H](O[C@H]2O[C@H](CO)[C@@H](O)[C@H](O)[C@H]2O)[C@H](O)[C@@H](O)[C@@H]1O [trehalose, D-(+)-Trehalose-dihydrate]",time required for the once vitrificated storage solution to be melted completely,[7],no reduction of melting time
same,vitrification by rapid cooling in liquid nitrogen,[6],vitrified
"CC(C)(O)CCO [IPG, Isoprene glycol]",vitrification by rapid cooling with liquid nitrogen,[2],vitrified
"CC(O)CO (centres unmarked) [PG, Propylene glycol]","colonies after vitrification, melting and culture",[1],secondly
same,vitrification by rapid cooling with liquid nitrogen,[2],vitrified
same,differentiation promoting effect on the CMES cells,[3],no differentiation promoting effect
same,nature of the colony morphology,[3],good
"OCCCCO [BG, Butylene glycol]",vitrification by rapid cooling with liquid nitrogen,[2],vitrified
